From patent US12655116B2, “Substituted isophthalic acid diamides” (Bayer Aktiengesellschaft, priority 2020, dated 2026)

Key:
MATIN [1] = experiment: Post-emergence herbicidal action against MATIN; type: in vivo, Matricaria inodora; details: Tripleurospermum inodorum, 504 h; for pest or weed control at 5 g/ha: dosage 5 g/ha; for pest or weed control at 20 g/ha: dosage 20 g/ha
Method in brief: (§1)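 Herbicidal action is a visual percentage rating (0% = as untreated control, 100% = plants dead) made roughly 3 weeks after treatment. Plants were grown in sandy loam in the greenhouse and treated at the one-leaf stage, 2 to 3 weeks post-sowing. Treatment was a foliar spray of wettable-powder or emulsion-concentrate formulations at 600 to 800 l/ha water plus 0.2% wetting agent.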

PHBPU [2] = experiment: Pre-emergence herbicidal action against PHBPU; type: in vivo, Pharbitis purpurea; details: Ipomoea purpurea, 504 h; for pest or weed control at 80 g/ha: dosage 80 g/ha
Method in brief: (§2)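 Sandy loam pots, seeds covered with soil, then surface-treated with WP or EC formulations at 600–800 l/ha water plus 0.2% wetting agent. Greenhouse, 3 weeks. Percent damage vs untreated controls.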

ALOMY = experiment: Pre-emergence herbicidal action against ALOMY; type: in vivo, Alopecurus myosuroides; details: Alopecurus myosuroides, 504 h; 80 g/ha, pre-emergence, scored visually after 3 weeks vs untreated controls (100% = plants have died, 0% = like control plants)
Method in brief: as §2

AMARE [3] = experiment: Pre-emergence herbicidal action against AMARE; type: in vivo, Amaranthus retroflexus; details: Amaranthus retroflexus, 504 h, scored visually after 3 weeks vs untreated controls, 100% = plants have died, 0% = like control plants
Method in brief: as §2

AMARE [4] = experiment: Post-emergence herbicidal action against AMARE; type: in vivo, Amaranthus retroflexus; details: Amaranthus retroflexus, 504 h, 20 g/ha, visual assessment about 3 weeks after treatment, 100% = plants have died, 0% = like control plants
Method in brief: as §1

DIGSA [5] = experiment: Pre-emergence herbicidal action against DIGSA; type: in vivo, Digitaria sanguinalis; details: Digitaria sanguinalis, 504 h; for pest or weed control at 80 g/ha: dosage 80 g/ha
Method in brief: as §2

SETVI [6] = experiment: Post-emergence herbicidal action against SETVI; type: in vivo, Setaria viridis; details: Setaria viridis, 504 h; for pest or weed control at 5 g/ha: dosage 5 g/ha; for pest or weed control at 20 g/ha: dosage 20 g/ha
Method in brief: as §1

ABUTH [7] = experiment: Post-emergence herbicidal action against ABUTH; type: in vivo, Abutilon theophrasti; details: Abutilon theophrasti, 504 h, visual assessment about 3 weeks after treatment vs untreated controls; for pest or weed control at 5 g/ha: dosage 5 g/ha; for pest or weed control at 20 g/ha: dosage 20 g/ha
Method in brief: as §1

PHBPU [8] = experiment: Post-emergence herbicidal action against PHBPU; type: in vivo, Pharbitis purpurea; details: Ipomoea purpurea, 504 h; for pest or weed control at 20 g/ha: dosage 20 g/ha
Method in brief: as §1

AVEFA [9] = experiment: Pre-emergence herbicidal action against AVEFA; type: in vivo, Avena fatua; details: Avena fatua, 504 h; 80 g/ha, pre-emergence
Method in brief: as §2

VERPE [10] = experiment: Post-emergence herbicidal action against VERPE; type: in vivo, Veronica persica; details: Veronica persica, 504 h
Method in brief: as §1

POLCO = experiment: Pre-emergence herbicidal action against POLCO; type: in vivo, Polygonum convolvulus; details: Fallopia convolvulus, 504 h; for pest or weed control at 80 g/ha: dosage 80 g/ha
Method in brief: as §2

DIGSA [11] = experiment: Post-emergence herbicidal action against DIGSA; type: in vivo, Digitaria sanguinalis; details: Digitaria sanguinalis, 504 h
Method in brief: as §1

AVEFA [12] = experiment: Post-emergence herbicidal action against AVEFA; type: in vivo, Avena fatua; details: Avena fatua, 504 h, 20 g/ha, visual assessment about 3 weeks after treatment, 100% = plants have died, 0% = like control plants
Method in brief: as §1

ABUTH [13] = experiment: Pre-emergence herbicidal action against ABUTH; type: in vivo, Abutilon theophrasti; details: Abutilon theophrasti, 504 h; for pest or weed control at 80 g/ha: scored visually after 3 weeks vs untreated controls (100% = plants have died, 0% = like control plants)
Method in brief: as §2

ECHCG [14] = experiment: Post-emergence herbicidal action against ECHCG; type: in vivo, Echinochloa crus-galli; details: Echinochloa crus-galli, 504 h; for pest or weed control at 20 g/ha: dosage 20 g/ha
Method in brief: as §1

SETVI [15] = experiment: Pre-emergence herbicidal action against SETVI; type: in vivo, Setaria viridis; details: Setaria viridis, 504 h; for pest or weed control at 80 g/ha: dosage 80 g/ha
Method in brief: as §2

VERPE [16] = experiment: Pre-emergence herbicidal action against VERPE; type: in vivo, Veronica persica; details: Veronica persica, 504 h, dosage 80 g/ha
Method in brief: as §2

ECHCG [17] = experiment: Pre-emergence herbicidal action against ECHCG; type: in vivo, Echinochloa crus-galli; details: Echinochloa crus-galli, 504 h
Method in brief: as §2

VIOTR [18] = experiment: Post-emergence herbicidal action against VIOTR; type: in vivo, Viola tricolor; details: Viola tricolor, 504 h
Method in brief: as §1

VIOTR [19] = experiment: Pre-emergence herbicidal action against VIOTR; type: in vivo, Viola tricolor; details: Viola tricolor, 504 h; for pest or weed control at 20 g/ha: dosage 20 g/ha; for pest or weed control at 80 g/ha: dosage 80 g/ha
Method in brief: as §2

MATIN [20] = experiment: Pre-emergence herbicidal action against MATIN; type: in vivo, Matricaria inodora; details: Tripleurospermum inodorum, 504 h; for pest or weed control at 20 g/ha: dosage 20 g/ha; for pest or weed control at 80 g/ha: dosage 80 g/ha
Method in brief: as §2

SMILES: COc1c(C(=O)Nc2nnnn2C)ccc(C(F)(F)F)c1C(=O)NC1CC1 [Example 1-58]
- pest or weed control at 5 g/ha (MATIN [1]): 80%
- pest or weed control at 20 g/ha (MATIN [1]): 90%
- pest or weed control at 80 g/ha (PHBPU [2]): 90%
- pest or weed control at 80 g/ha (ALOMY): 90%
- pest or weed control at 20 g/ha (AMARE [3]): 100%
- pest or weed control at 80 g/ha (AMARE [3]): 100%
- pest or weed control at 20 g/ha (AMARE [4]): 100%
- pest or weed control at 80 g/ha (DIGSA [5]): 80%
- pest or weed control at 5 g/ha (SETVI [6]): 100%
- pest or weed control at 20 g/ha (SETVI [6]): 100%
- pest or weed control at 5 g/ha (ABUTH [7]): 90%
- pest or weed control at 20 g/ha (ABUTH [7]): 90%
- pest or weed control at 20 g/ha (PHBPU [8]): 90%
- pest or weed control at 80 g/ha (AVEFA [9]): 80%
- pest or weed control at 20 g/ha (VERPE [10]): 80%
- pest or weed control at 20 g/ha (POLCO; dosage 20 g/ha): 80%
- pest or weed control at 80 g/ha (POLCO): 90%
- pest or weed control at 5 g/ha (DIGSA [11]): 100%
- pest or weed control at 20 g/ha (DIGSA [11]): 100%
- pest or weed control at 20 g/ha (AVEFA [12]): 90%
- pest or weed control at 80 g/ha (ABUTH [13]): 80%
- pest or weed control at 5 g/ha (ECHCG [14]; dosage 5 g/ha): 90%
- pest or weed control at 20 g/ha (ECHCG [14]): 90%
- pest or weed control at 20 g/ha (SETVI [15]; dosage 20 g/ha): 100%
- pest or weed control at 80 g/ha (SETVI [15]): 100%
- pest or weed control at 80 g/ha (VERPE [16]): 100%
- pest or weed control at 20 g/ha (ECHCG [17]; 20 g/ha): 100%
- pest or weed control at 80 g/ha (ECHCG [17]): 100%
- pest or weed control at 5 g/ha (VIOTR [18]): 90%
- pest or weed control at 20 g/ha (VIOTR [18]): 100%
- pest or weed control at 20 g/ha (VIOTR [19]): 100%
- pest or weed control at 80 g/ha (VIOTR [19]): 100%
- pest or weed control at 20 g/ha (MATIN [20]): 90%
- pest or weed control at 80 g/ha (MATIN [20]): 100%

SMILES: CCc1c(C(=O)Nc2nnnn2C)ccc(C(F)F)c1C(=O)NC [Example 1-277]
- pest or weed control at 5 g/ha (MATIN [1]): 90%
- pest or weed control at 20 g/ha (MATIN [1]): 90%
- pest or weed control at 20 g/ha (PHBPU [2]; dosage 20 g/ha): 80%
- pest or weed control at 80 g/ha (PHBPU [2]): 90%
- pest or weed control at 80 g/ha (ALOMY): 90%
- pest or weed control at 20 g/ha (AMARE [3]): 100%
- pest or weed control at 80 g/ha (AMARE [3]): 100%
- pest or weed control at 20 g/ha (AMARE [4]): 100%
- pest or weed control at 20 g/ha (DIGSA [5]; dosage 20 g/ha): 100%
- pest or weed control at 80 g/ha (DIGSA [5]): 100%
- pest or weed control at 5 g/ha (SETVI [6]): 90%
- pest or weed control at 20 g/ha (SETVI [6]): 90%
- pest or weed control at 5 g/ha (ABUTH [7]): 90%
- pest or weed control at 20 g/ha (ABUTH [7]): 90%
- pest or weed control at 5 g/ha (PHBPU [8]; dosage 5 g/ha): 90%
- pest or weed control at 20 g/ha (PHBPU [8]): 90%
- pest or weed control at 80 g/ha (AVEFA [9]): 90%
- pest or weed control at 5 g/ha (VERPE [10]; 5 g/ha): 80%
- pest or weed control at 20 g/ha (VERPE [10]): 90%
- pest or weed control at 80 g/ha (POLCO): 90%
- pest or weed control at 5 g/ha (DIGSA [11]): 90%
- pest or weed control at 20 g/ha (DIGSA [11]): 90%
- pest or weed control at 20 g/ha (AVEFA [12]): 80%
- pest or weed control at 80 g/ha (ABUTH [13]): 100%
- pest or weed control at 20 g/ha (ABUTH [13]; dosage 20 g/ha, scored visually after 3 weeks vs untreated controls, 100% = plants have died, 0% = like control plants, read-out: Pre-emergence action against ABUTH (herbicidal activity in percent)): 90%
- pest or weed control at 20 g/ha (ECHCG [14]): 90%
- pest or weed control at 80 g/ha (SETVI [15]): 100%
- pest or weed control at 80 g/ha (VERPE [16]): 90%
- pest or weed control at 80 g/ha (ECHCG [17]): 90%
- pest or weed control at 5 g/ha (VIOTR [18]): 80%
- pest or weed control at 20 g/ha (VIOTR [18]): 90%
- pest or weed control at 20 g/ha (VIOTR [19]): 100%
- pest or weed control at 80 g/ha (VIOTR [19]): 100%
- pest or weed control at 20 g/ha (MATIN [20]): 90%
- pest or weed control at 80 g/ha (MATIN [20]): 100%
